Assay results taken from ChEMBL document CHEMBL1201862, “PubChem BioAssay data set” (2004).
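Test compounds were applied to cells in 96-well plates for 48 hours at 5 doses. Here, GI50 denotes the concentration required for 50% inhibition of growth.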 Active and inactive are the calls of the source. Cut-off read from the data, not from the text of the source: active = GI50 up to about 1.1 µM and inactive = higher.

Experiments:
Experiment in all cases: DTP human tumour cell line panel, 48 h
[1] = tested on: HOP-62
[2] = tested on: SK-MEL-5
[3] = tested on: A498
[4] = tested on: XF498
[5] = tested on: LXFL 529
[6] = tested on: HOP-18
[7] = tested on: KM-20L2
[8] = tested on: SF-268
[9] = tested on: U-251
[10] = tested on: IGROV-1
[11] = tested on: SR
[12] = tested on: SK-MEL-2
[13] = tested on: DMS-273
[14] = tested on: NCI-H522
[15] = tested on: SK-MEL-28
[16] = tested on: RPMI-8226
[17] = tested on: SNB-75
[18] = tested on: UO-31
[19] = tested on: CAKI-1
[20] = tested on: HOP-92
[21] = tested on: M19-MEL
[22] = tested on: RXF 631
[23] = tested on: SF-539
[24] = tested on: OVCAR-5
[25] = tested on: SK-OV-3
[26] = tested on: HCT-15
[27] = tested on: HCT-116
[28] = tested on: KM12
[29] = tested on: SF-295
[30] = tested on: OVCAR-8
[31] = tested on: HT-29
[32] = tested on: M14
[33] = tested on: Malme-3M
[34] = tested on: SW-620
[35] = tested on: EKVX
[36] = tested on: SNB-19
[37] = tested on: OVCAR-3
[38] = tested on: MOLT-4
[39] = tested on: SN12C
[40] = tested on: A549
[41] = tested on: SNB-78
[42] = tested on: COLO 205
[43] = tested on: HCC 2998

In the case of `COc1ccc(C2C(C#N)=C(O)NC(O)=C2C#N)cc1OC`, the GI50 [1] is reported as > 100 µM (inactive), the GI50 [2] is reported as > 100 µM (inactive) and the GI50 [3] is reported as > 100 µM (inactive). The GI50 [4] was > 100 µM (inactive), the GI50 [5] was > 100 µM (inactive) and the GI50 [6] was > 100 µM (inactive). For the same compound, the GI50 [7] was > 100 µM (inactive), the GI50 [8] was > 100 µM (inactive) and the GI50 [9] was > 100 µM (inactive). The GI50 [10] was > 100 µM (inactive), the GI50 [11] was > 100 µM (inactive) and the GI50 [12] was > 100 µM (inactive). The GI50 [13] was > 100 µM (inactive), the GI50 [14] was > 100 µM (inactive) and the GI50 [15] was > 100 µM (inactive). The GI50 [16] was > 100 µM (inactive), the GI50 [17] was > 100 µM (inactive) and the GI50 [18] was > 100 µM (inactive). For the same compound, the GI50 [19] was > 100 µM (inactive), the GI50 [20] was > 100 µM (inactive) and the GI50 [21] was > 100 µM (inactive). The GI50 [22] was > 100 µM (inactive), the GI50 [23] was > 100 µM (inactive) and the GI50 [24] was > 100 µM (inactive). The GI50 [25] was > 100 µM (inactive), the GI50 [26] was greater than 100 µM and the GI50 [27] was > 100 µM (inactive). The GI50 [28] was > 100 µM (inactive), the GI50 [29] was > 100 µM (inactive) and the GI50 [30] was > 100 µM (inactive). For the same compound, the GI50 [31] was > 100 µM (inactive), the GI50 [32] was > 100 µM (inactive) and the GI50 [33] was > 100 µM (inactive). The GI50 [34] was > 100 µM (inactive), the GI50 [35] was > 100 µM (inactive) and the GI50 [36] was > 100 µM (inactive). The GI50 [37] was > 100 µM (inactive), the GI50 [38] was > 100 µM (inactive) and the GI50 [39] was > 100 µM (inactive). For the same compound, the GI50 [40] was > 100 µM (inactive), the GI50 [41] was > 100 µM (inactive) and the GI50 [42] was > 100 µM (inactive). The GI50 [43] was > 100 µM (inactive).
